Laboratory results from US20090246292A1, “ANTIMICROBIAL FORMULATIONS COMPRISING A QUINONE AND A COPPER SALT” (priority 2006, published 2009).
Several values for one entry are separate records, joined by “and”; a condition that tells them apart may be missing. Equal entries are not always repeated.

Legend:
P. acnes PRP-017 = experiment: Disc diffusion assay (DDA), also supplemented; format: cell-based, Propionibacterium acnes; settings: 200 μg per disc
P. acnes PRP-004 = experiment: Disc diffusion assay (DDA), also supplemented; format: cell-based, Propionibacterium acnes; settings: 200 μg per disc
Method: (§6) The propionibacteria were cultured and maintained on Wilkins-Chalgren Anaerobe Medium (agar and broth) at pH 6.0; all cultures were incubated anaerobically at 37° C. for 72 hours.
(§7) A sterile paper disc was impregnated with a sample of the test compound in a suitable solvent and 30 minutes allowed for the solvents to evaporate (where possible). The disc was then placed on an agar plate onto which the test micro-organism had been inoculated. The plate was then incubated under the conditions described above, following which it was examined visually for signs of bacterial growth. […] The diameter of this zone of “inhibition” was measured using a ProtoCOL™ automated zone sizer (Synbiosis, Cambridge, UK).
(§8) For assays using Propionibacterium spp. strains the supplements used in the examples below were lipid (either Tween™ 80 or triolein, both at 1% v/v) and sodium chloride (100 mM).

P. granulosum PRP-043 [1] = experiment: Disc diffusion assay (DDA), also supplemented; format: cell-based; settings: 200 μg per disc
Method: as §6, §7, §8

P. granulosum PRP-019 [2] = experiment: Disc diffusion assay (DDA), also supplemented; format: cell-based; settings: 200 μg per disc
Method: as §6, §7, §8

S. aureus ATCC 29213 [3] = experiment: Minimum inhibitory concentration (MIC) assay; format: cell-based, Staphylococcus aureus
Text: (a) Minimum Inhibitory Concentration (MIC) Assay
The culture media were as described above.
The assays included both negative (culture medium with no micro-organisms) and positive (culture medium plus diluting solvent plus micro-organism) controls.

P. acnes NCTC 737 = experiment: Minimum bactericidal concentration (MBC) assay; format: cell-based, Propionibacterium acnes
Method: (§1) (b) Minimum Bactericidal Concentration (MBC) Assay
(§2) Following incubation they were examined visually for bacterial growth.

P. acnes PRP-053 = P. acnes PRP-053 (resistance Tet/MLS); agar dilution
Method: (§3) This is a standard international method for quantitatively assessing the antimicrobial activity of a compound in a solid medium. […] A set amount of these antimicrobial stock solutions was then added to molten agar medium (ca. 55° C.), mixed thoroughly, poured into sterile Petri dishes and allowed to cool/set. The culture medium was as described above.
(§4) A Multipoint™ Inoculator (AQS Manufacturing Ltd, UK) was used to inoculate the plates by spotting the inocula onto the surface of the agar, delivering approximately 1 to 2 μl per spot (yielding 10^5 CFU (colony forming units) per spot).
(§5) The plate(s) were then incubated under the conditions described above, following which they were examined visually for signs of bacterial growth. The MIC value was ascertained when there was a marked reduction in, or total loss of, growth on the test plate at the lowest concentration as compared to that of the growth on the control plate.

P. granulosum PRP-019 [4] = settings: P. granulosum PRP-019 (resistance MLSK); agar dilution
Method: as §3, §4, §5

P. granulosum PRP-055 [5] = settings: P. granulosum PRP-055 (resistance None); agar dilution
Method: as §3, §4, §5

P. acnes PRP-002 [6] = settings: P. acnes PRP-002 (resistance Tet/MLS); agar dilution
Method: as §3, §4, §5

P. granulosum PRP-043 [7] = settings: P. granulosum PRP-043 (resistance MLS); agar dilution
Method: as §3, §4, §5

P. granulosum PRP-005 = experiment: Disc diffusion assay (DDA), also supplemented; format: cell-based; settings: 200 μg per disc
Method: as §6, §7, §8

P. acnes PRP-039 = experiment: Disc diffusion assay (DDA), also supplemented; format: cell-based, Propionibacterium acnes; settings: 200 μg per disc
P. acnes PRP-068 = experiment: Disc diffusion assay (DDA), also supplemented; format: cell-based, Propionibacterium acnes; settings: 200 μg per disc
Method: as §6, §7, §8

P. acnes PRP-002 [8] = experiment: Disc diffusion assay (DDA), also supplemented; format: cell-based, Propionibacterium acnes; settings: 200 μg per disc
Method: as §6, §7, §8

S. aureus ATCC 29213 [9] = experiment: Disc diffusion assay (DDA), also supplemented
P. acnes PRP-010 = experiment: Disc diffusion assay (DDA), also supplemented; format: cell-based, Propionibacterium acnes; settings: 200 μg per disc
Method: as §6, §7, §8

P. granulosum NCTC 11865 = experiment: Disc diffusion assay (DDA), also supplemented; format: cell-based; settings: 200 μg per disc
Method: as §6, §7, §8

P. acnes PRP-046 = experiment: Disc diffusion assay (DDA), also supplemented; format: cell-based, Propionibacterium acnes; settings: 200 μg per disc
P. granulosum PRP-006 = experiment: Disc diffusion assay (DDA), also supplemented; format: cell-based; settings: 200 μg per disc
Method: as §6, §7, §8

P. granulosum PRP-055 [10] = experiment: Disc diffusion assay (DDA), also supplemented; format: cell-based; settings: 200 μg per disc
Method: as §6, §7, §8

S. aureus ATCC 29213 [11] = experiment: Minimum bactericidal concentration (MBC) assay; format: cell-based, Staphylococcus aureus
Method: as §1, §2

[12] = test system: panel of different propionibacterium strains; experiment: MIC by agar dilution and (S)DDA, whole panel; format: cell-based, Propionibacterium spp; settings: compound alone; also under supplemented conditions
Method: For (S)DDA experiments 200 μg of each test compound was added per disc. […] MIC experiments were performed in duplicate, DDA experiments as single replicates only. SDDA experiments were conducted in triplicate.
The activity of the salt (MIC by agar dilution and DDA) was also determined against a panel of different propionibacterium strains. Supplemented DDA experiments were also carried out. […] DMSO was used as the diluting solvent. MIC experiments were performed in duplicate and DDA experiments as single replicates only.

P. acnes PRP-007 = experiment: Disc diffusion assay (DDA), also supplemented; format: cell-based, Propionibacterium acnes; settings: 200 μg per disc
Method: as §6, §7, §8

P. acnes PRP-026 = experiment: Disc diffusion assay (DDA), also supplemented; format: cell-based, Propionibacterium acnes; settings: 200 μg per disc
Method: as §6, §7, §8

O.O.O.O.O.O=S(=O)([O-])[O-].[Cu+2] [Copper (II) sulphate pentahydrate]
DDA + salt (P. acnes PRP-017): 56.85 mm
DDA + lipid (P. acnes PRP-017; 1% (v/v) triolein): 55.03 mm
DDA (P. acnes PRP-017; single replicate): 51.38 mm
DDA (P. acnes PRP-017; Table 12 series): 46.31 mm
DDA + salt (P. acnes PRP-004): 52.60 mm
DDA + lipid (P. acnes PRP-004; 1% (v/v) triolein): 45.61 mm
DDA (P. acnes PRP-004; single replicate): 51.08 mm
DDA (P. acnes PRP-004; Table 12 series): 44.85 mm
DDA + salt (P. granulosum PRP-043 [1]): 50.17 mm
DDA + lipid (P. granulosum PRP-043 [1]; 1% (v/v) triolein): 41.35 mm
DDA (P. granulosum PRP-043 [1]; single replicate): 46.82 mm
DDA (P. granulosum PRP-043 [1]; Table 12 series): 56.56 mm
DDA + salt (P. granulosum PRP-019 [2]): 25.84 mm
DDA + lipid (P. granulosum PRP-019 [2]; 1% (v/v) triolein): 24.02 mm
DDA (P. granulosum PRP-019 [2]; single replicate): 22.80 mm
DDA (P. granulosum PRP-019 [2]; Table 12 series): 24.15 mm
MIC (S. aureus ATCC 29213 [3]): >250 µg/mL
MBC (P. acnes NCTC 737): 125 µg/mL
MIC (P. acnes PRP-053): 7.8 µg/mL
MIC (P. granulosum PRP-019 [4]): 62.5 µg/mL
MIC (P. granulosum PRP-055 [5]): 62.5 µg/mL
MIC (P. acnes PRP-002 [6]): 7.8 µg/mL
MIC (P. granulosum PRP-043 [7]): 7.8 µg/mL
DDA + salt (P. granulosum PRP-005): 29.19 mm
DDA + lipid (P. granulosum PRP-005; 1% (v/v) triolein): 24.32 mm
DDA (P. granulosum PRP-005; single replicate): 24.02 mm
DDA (P. granulosum PRP-005; Table 12 series): 22.48 mm
DDA + salt (P. acnes PRP-039): 61.72 mm
DDA + lipid (P. acnes PRP-039; 1% (v/v) triolein): 59.29 mm
DDA (P. acnes PRP-039; single replicate): 53.51 mm
DDA (P. acnes PRP-039; Table 12 series): 56.35 mm
DDA + salt (P. acnes PRP-068): 54.73 mm
DDA + lipid (P. acnes PRP-068; 1% (v/v) triolein): 49.56 mm
DDA (P. acnes PRP-068; single replicate): 52.90 mm
DDA (P. acnes PRP-068; Table 12 series): 51.12 mm
DDA + salt (P. acnes PRP-002 [8]): 50.77 mm
DDA + lipid (P. acnes PRP-002 [8]; 1% (v/v) triolein): 47.13 mm
DDA (P. acnes PRP-002 [8]; single replicate): 49.25 mm
DDA (P. acnes PRP-002 [8]; Table 12 series): 57.92 mm
DDA (S. aureus ATCC 29213 [9]): 0 mm and 0.00 (±0.00) mm
DDA + lipid (S. aureus ATCC 29213 [9]): 0 mm
DDA + salt (S. aureus ATCC 29213 [9]): 0 mm
DDA + salt & serum (S. aureus ATCC 29213 [9]): 0 mm and 0.00 (±0.00) mm
DDA + salt (P. acnes PRP-010): 62.33 mm
DDA + lipid (P. acnes PRP-010; 1% (v/v) triolein): 46.82 mm
DDA (P. acnes PRP-010; single replicate): 63.24 mm
DDA (P. acnes PRP-010; Table 12 series): 46.73 mm
DDA + salt (P. granulosum NCTC 11865): 48.34 mm
DDA + lipid (P. granulosum NCTC 11865; 1% (v/v) triolein): 41.65 mm
DDA (P. granulosum NCTC 11865; single replicate): 48.34 mm
DDA (P. granulosum NCTC 11865; Table 12 series): 53.32 mm
DDA + salt (P. acnes PRP-046): 63.54 mm
DDA + lipid (P. acnes PRP-046; 1% (v/v) triolein): 60.81 mm
DDA (P. acnes PRP-046; single replicate): 53.81 mm
DDA (P. acnes PRP-046; Table 12 series): 50.29 mm
DDA + salt (P. granulosum PRP-006): 37.09 mm
DDA + lipid (P. granulosum PRP-006; 1% (v/v) triolein): 30.71 mm
DDA (P. granulosum PRP-006; single replicate): 31.62 mm
DDA (P. granulosum PRP-006; Table 12 series): 27.91 mm
DDA + salt (P. granulosum PRP-055 [10]): 28.88 mm
DDA + lipid (P. granulosum PRP-055 [10]; 1% (v/v) triolein): 27.97 mm
DDA (P. granulosum PRP-055 [10]; single replicate): 27.67 mm
DDA (P. granulosum PRP-055 [10]; Table 12 series): 31.78 mm
MBC (S. aureus ATCC 29213 [11]): >250 µg/mL
activity against propionibacterium strains tested (in words) [12]: excellent level of activity
DDA + salt (P. acnes PRP-007): 55.03 mm
DDA + lipid (P. acnes PRP-007; 1% (v/v) triolein): 48.95 mm
DDA (P. acnes PRP-007; single replicate): 56.55 mm
DDA (P. acnes PRP-007; Table 12 series): 40.35 mm
DDA + salt (P. acnes PRP-026): 52.90 mm
DDA + lipid (P. acnes PRP-026; 1% (v/v) triolein): 53.21 mm
DDA (P. acnes PRP-026; single replicate): 51.08 mm
DDA (P. acnes PRP-026; Table 12 series): 56.14 mm
